`Cc1ccc(NC(=O)c2ccc(CN(C)C)c(C(F)(F)F)c2)cc1-c1ccc2cnncc2c1` [Example 19, 4-Dimethylaminomethyl-N-(4-methyl-3-phthalazin-6-yl-phenyl)-3-trifluoromethyl-benzamide] displayed a melting point of 240 to 241 °C.

`Cc1ccc(NC(=O)c2ccc(CN3CCN(C)CC3)c(C(F)(F)F)c2)cc1-c1ccc2cnncc2c1` [Example 15, N-(4-Methyl-3-phthalazin-6-yl-phenyl)-4-(4-methyl-piperazin-1-ylmethyl)-3-trifluoromethyl-benzamide] had a melting point of 204 to 208 °C.

The molecule `Cc1ccc(C(=O)Nc2ccc(CN3CCCCC3)c(C(F)(F)F)c2)cc1-c1ccc2cnncc2c1` [Example 22, 4-Methyl-3-phthalazin-6-yl-N-(4-piperidin-1-ylmethyl-3-trifluoromethyl-phenyl)-benzamide] yielded a melting point of 247 to 249 °C.

Consider `Cc1ccc(C(=O)Nc2cccc(C(F)(F)F)c2)cc1-c1ccc2scnc2c1` [Example 10, 3-Benzothiazol-5-yl-4-methyl-N-(3-trifluoromethylphenyl)benzamide], for which the melting point is 200 to 202 °C.

As for `Cc1ccc(NC(=O)c2cccc(C(F)(F)F)c2)cc1-c1ccc2ncsc2c1` [Example 5, N-(3-Benzothiazol-6-yl-4-methyl-phenyl)-3-trifluoromethyl-benzamide], the melting point was 94 to 96 °C.

Regarding `Cc1ccc(NC(=O)c2ccc(CN3CCCCC3)c(C(F)(F)F)c2)cc1-c1ccc2cnncc2c1` [Example 17, N-(4-Methyl-3-phthalazin-6-yl-phenyl)-4-piperidin-1-ylmethyl-3-trifluoromethyl-benzamide], the melting point lay within 175 to 177 °C.

Molecule `Cc1ccc(NC(=O)c2ccc(CN3CCOCC3)c(C(F)(F)F)c2)cc1-c1ccc2cnncc2c1` [Example 20, N-(4-Methyl-3-phthalazin-6-yl-phenyl)-4-morpholin-4-ylmethyl-3-trifluoromethyl-benzamide] yielded a melting point of 236 to 238 °C.

Regarding `Cc1ccc(NC(=O)c2cccc(C(F)(F)F)c2)cc1-c1ccc2ccncc2c1` [Example 1, N-(3-Isoquinolin-7-yl-4-methyl-phenyl)-3-trifluoromethyl-benzamide], the melting point lay in the range of 148 to 152 °C.

With `Cc1ccc(C(=O)Nc2ccc(CN(C)C)c(C(F)(F)F)c2)cc1-c1ccc2cnncc2c1` [Example 24, N-(4-Dimethylaminomethyl-3-trifluoromethyl-Phenyl)-4-methyl-3-phthalazin-6-yl-benzamide], the melting point fell in the range of 251 to 254 °C.

As for `Cc1ccc(C(=O)Nc2cccc(C(F)(F)F)c2)cc1-c1ccc2ncsc2c1` [Example 6, 3-Benzothiazol-6-yl-4-methyl-N-(3-trifluoromethyl-phenyl)-benzamide], the melting point was 102 to 104 °C.

Take `Cc1ccc(C(=O)Nc2cccc(C(F)(F)F)c2)cc1-c1ccc2cnncc2c1` [Example 8, 4-Methyl-3-phthalazin-6-yl-N-(3-trifluoromethyl-phenyl)-benzamide]: the melting point lay within 270 to 272 °C.

`Cc1ccc(C(=O)Nc2ccc(CN3CCCC3)c(C(F)(F)F)c2)cc1-c1ccc2cnncc2c1` [Example 25, 4-Methyl-3-phthalazin-6-yl-N-(4-pyrrolidin-1-ylmethyl-3-trifluoromethyl-phenyl)-benzamide] yielded a melting point of 246 to 250 °C.

In turn, `Cc1ccc(NC(=O)c2cccc(C(F)(F)F)c2)cc1-c1ccc2scnc2c1` [Example 9, N-(3-Benzothiazol-5-yl-4-methyl-phenyl)-3-trifluoromethyl-benzamide] had a melting point of 90 to 93 °C.

Regarding `Cc1ccc(C(=O)Nc2cccc(C(F)(F)F)c2)cc1-c1ccc2ccncc2c1` [Example 3, 3-Isoquinolin-7-yl-4-methyl-N-(3-trifluoromethyl-phenyl)-benzamide], the melting point was 157 to 159 °C.

On to `Cc1ccc(NC(=O)c2cccc(C(F)(F)F)c2)cc1-c1ccc2cnncc2c1` [Example 7, N-(4-Methyl-3-phthalazin-6-yl-phenyl)-3-trifluoromethyl-benzamide], for which the melting point lay within 205 to 206 °C.

Consider `Cc1ccc(C(=O)Nc2ccc(CN3CCOCC3)c(C(F)(F)F)c2)cc1-c1ccc2cnncc2c1` [Example 23, 4-Methyl-N-(4-morpholin-4-ylmethyl-3-trifluoromethyl-phenyl)-3-phthalazin-6-yl-benzamide], for which the melting point lay in the range of 284 to 287 °C.
